Results taken from article PMC6073232 (International Journal of Molecular Sciences, 2018).

How the values were obtained:
TRESK (K2P18.1) [1] = biological target: T1, TRESK (K2P18.1) (Mus musculus, UniProt Q6VV64); assay: whole-cell patch clamp, % inhibition at […]; type: cell-based
T1 construct: gene Kcnk18; mouse TRESK (NM_207261) in HEK-293 cells
T1 sequence (Q6VV64 1-394): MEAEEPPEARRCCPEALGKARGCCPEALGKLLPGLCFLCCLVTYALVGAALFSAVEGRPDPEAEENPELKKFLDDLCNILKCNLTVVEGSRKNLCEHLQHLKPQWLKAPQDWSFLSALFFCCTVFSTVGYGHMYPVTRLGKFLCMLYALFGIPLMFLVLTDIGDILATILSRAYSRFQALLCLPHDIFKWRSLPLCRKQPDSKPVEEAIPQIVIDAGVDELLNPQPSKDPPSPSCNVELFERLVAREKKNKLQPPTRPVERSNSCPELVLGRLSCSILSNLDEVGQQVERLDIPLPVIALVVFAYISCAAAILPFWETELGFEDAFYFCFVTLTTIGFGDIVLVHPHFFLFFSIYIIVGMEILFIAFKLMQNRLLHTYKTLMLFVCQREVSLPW

TRESK (K2P18.1) [2] = biological target: T1, TRESK (K2P18.1); assay: whole-cell patch clamp (abstract prints IC50 […]); type: cell-based

inhibition at 20 µM (TRESK (K2P18.1) [1]) [%] | Compound | IC50 (TRESK (K2P18.1) [2]) [µM]
45 ± 6 | COc1ccc(CCN(C)CCCC(C#N)(c2cc(OC)c(OC)c(OC)c2)C(C)C)cc1OC (centres unmarked) [D600] | 
 | COC(=O)C1=C(C)NC(C)=C(C(=O)OC)C1c1ccccc1[N+](=O)[O-] [nifedipine] | 63.8
